# Reference: patent publication US12662479B2 (Foghorn Therapeutics Inc., priority 2020, dated 2026)
# Key:
# HiBit-BRM fusion protein = biological target: T1, HiBit-BRM fusion protein (Homo sapiens, UniProt P51531); experiment: HiBiT-BRM cell-based degradation assay (Nano-Glo HiBiT Lytic Detection, 24 h); details: HeLa cells expressing HiBiT-BRM; for DC50: read-out: BRM HiBit Degradation IC50; for BRM HiBit Degradation Maximum measured: top dose 30 μM
# T1 construct: expressed in transfected cells
# Procedure, shortened: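 Percent BRM loss was derived from HiBiT luminescence relative to DMSO-treated cells and cells given 2 μM of a known BRM/BRG1 degrader. Treatment lasted 24 h in HiBiT-BRM HeLa cells, with a top final concentration of 30 μM.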
# [1] = biological target: T2, HiBit-BRG1 fusion protein (Homo sapiens, UniProt P51532); experiment: HiBiT-BRG1 cell-based degradation assay (Nano-Glo HiBiT Lytic Detection, 24 h); details: HeLa cells expressing HiBit-BRG1 and LgBit; for DC50: read-out: BRG1 HiBit Degradation IC50; for Dmax: HeLa, top dose 30 μM, read-out: BRG1 HiBit Degradation Maximum measured
# T2 construct: expressed in transfected cells
# Procedure, shortened: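 Degradation is scaled from DMSO-treated cells (0%) to cells given 2 μM of a known BRM/BRG1 degrader (100%). HeLa cells stably carrying HiBiT-BRG1 plus LgBiT (5000/well) were lysed with Nano-Glo HiBiT detection reagent, shaken 10 min at RT, and luminescence read.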
# T1 sequence (P51531 whole entry, the tested form may be a part): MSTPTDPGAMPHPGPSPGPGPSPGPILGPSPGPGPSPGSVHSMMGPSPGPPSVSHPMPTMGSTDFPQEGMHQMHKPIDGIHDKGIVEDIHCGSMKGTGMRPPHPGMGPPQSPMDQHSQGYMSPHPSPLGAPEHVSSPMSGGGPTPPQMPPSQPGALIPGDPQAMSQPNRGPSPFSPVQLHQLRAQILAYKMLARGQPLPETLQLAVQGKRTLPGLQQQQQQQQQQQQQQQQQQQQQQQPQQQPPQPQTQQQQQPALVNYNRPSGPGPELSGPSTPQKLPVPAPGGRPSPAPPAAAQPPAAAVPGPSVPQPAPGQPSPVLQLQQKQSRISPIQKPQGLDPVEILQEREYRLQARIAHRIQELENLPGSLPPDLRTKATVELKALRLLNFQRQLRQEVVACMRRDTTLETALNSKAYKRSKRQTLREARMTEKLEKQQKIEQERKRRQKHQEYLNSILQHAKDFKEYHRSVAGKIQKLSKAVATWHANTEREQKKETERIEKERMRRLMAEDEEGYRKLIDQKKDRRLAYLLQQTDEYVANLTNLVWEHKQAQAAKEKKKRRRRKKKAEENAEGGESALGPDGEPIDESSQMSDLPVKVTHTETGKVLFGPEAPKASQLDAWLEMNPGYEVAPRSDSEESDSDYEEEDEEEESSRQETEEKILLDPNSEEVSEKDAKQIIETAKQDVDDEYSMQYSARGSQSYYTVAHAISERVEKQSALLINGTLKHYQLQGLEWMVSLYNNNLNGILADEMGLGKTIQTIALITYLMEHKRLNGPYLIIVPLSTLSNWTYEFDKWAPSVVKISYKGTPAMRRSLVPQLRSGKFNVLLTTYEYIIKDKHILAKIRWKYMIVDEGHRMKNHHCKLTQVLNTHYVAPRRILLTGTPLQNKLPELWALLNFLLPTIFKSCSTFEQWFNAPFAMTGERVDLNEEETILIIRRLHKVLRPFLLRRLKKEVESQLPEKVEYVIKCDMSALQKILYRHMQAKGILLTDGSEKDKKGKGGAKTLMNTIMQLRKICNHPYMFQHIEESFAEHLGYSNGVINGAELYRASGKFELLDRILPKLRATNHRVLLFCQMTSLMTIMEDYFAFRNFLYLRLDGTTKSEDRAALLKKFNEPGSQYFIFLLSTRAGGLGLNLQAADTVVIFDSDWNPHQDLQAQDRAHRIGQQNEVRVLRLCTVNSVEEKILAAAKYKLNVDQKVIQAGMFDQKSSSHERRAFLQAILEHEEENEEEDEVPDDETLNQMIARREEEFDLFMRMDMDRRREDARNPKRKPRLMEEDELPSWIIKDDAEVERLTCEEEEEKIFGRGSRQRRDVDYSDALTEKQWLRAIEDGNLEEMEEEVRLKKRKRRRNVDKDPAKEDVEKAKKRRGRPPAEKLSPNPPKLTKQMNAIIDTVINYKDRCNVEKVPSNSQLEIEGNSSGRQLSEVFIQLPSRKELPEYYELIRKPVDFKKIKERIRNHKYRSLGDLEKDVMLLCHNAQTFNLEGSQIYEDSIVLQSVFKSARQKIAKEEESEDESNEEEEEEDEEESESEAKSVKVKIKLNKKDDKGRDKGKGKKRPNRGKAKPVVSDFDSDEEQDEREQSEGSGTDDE
# T2 sequence (P51532 whole entry, the tested form may be a part): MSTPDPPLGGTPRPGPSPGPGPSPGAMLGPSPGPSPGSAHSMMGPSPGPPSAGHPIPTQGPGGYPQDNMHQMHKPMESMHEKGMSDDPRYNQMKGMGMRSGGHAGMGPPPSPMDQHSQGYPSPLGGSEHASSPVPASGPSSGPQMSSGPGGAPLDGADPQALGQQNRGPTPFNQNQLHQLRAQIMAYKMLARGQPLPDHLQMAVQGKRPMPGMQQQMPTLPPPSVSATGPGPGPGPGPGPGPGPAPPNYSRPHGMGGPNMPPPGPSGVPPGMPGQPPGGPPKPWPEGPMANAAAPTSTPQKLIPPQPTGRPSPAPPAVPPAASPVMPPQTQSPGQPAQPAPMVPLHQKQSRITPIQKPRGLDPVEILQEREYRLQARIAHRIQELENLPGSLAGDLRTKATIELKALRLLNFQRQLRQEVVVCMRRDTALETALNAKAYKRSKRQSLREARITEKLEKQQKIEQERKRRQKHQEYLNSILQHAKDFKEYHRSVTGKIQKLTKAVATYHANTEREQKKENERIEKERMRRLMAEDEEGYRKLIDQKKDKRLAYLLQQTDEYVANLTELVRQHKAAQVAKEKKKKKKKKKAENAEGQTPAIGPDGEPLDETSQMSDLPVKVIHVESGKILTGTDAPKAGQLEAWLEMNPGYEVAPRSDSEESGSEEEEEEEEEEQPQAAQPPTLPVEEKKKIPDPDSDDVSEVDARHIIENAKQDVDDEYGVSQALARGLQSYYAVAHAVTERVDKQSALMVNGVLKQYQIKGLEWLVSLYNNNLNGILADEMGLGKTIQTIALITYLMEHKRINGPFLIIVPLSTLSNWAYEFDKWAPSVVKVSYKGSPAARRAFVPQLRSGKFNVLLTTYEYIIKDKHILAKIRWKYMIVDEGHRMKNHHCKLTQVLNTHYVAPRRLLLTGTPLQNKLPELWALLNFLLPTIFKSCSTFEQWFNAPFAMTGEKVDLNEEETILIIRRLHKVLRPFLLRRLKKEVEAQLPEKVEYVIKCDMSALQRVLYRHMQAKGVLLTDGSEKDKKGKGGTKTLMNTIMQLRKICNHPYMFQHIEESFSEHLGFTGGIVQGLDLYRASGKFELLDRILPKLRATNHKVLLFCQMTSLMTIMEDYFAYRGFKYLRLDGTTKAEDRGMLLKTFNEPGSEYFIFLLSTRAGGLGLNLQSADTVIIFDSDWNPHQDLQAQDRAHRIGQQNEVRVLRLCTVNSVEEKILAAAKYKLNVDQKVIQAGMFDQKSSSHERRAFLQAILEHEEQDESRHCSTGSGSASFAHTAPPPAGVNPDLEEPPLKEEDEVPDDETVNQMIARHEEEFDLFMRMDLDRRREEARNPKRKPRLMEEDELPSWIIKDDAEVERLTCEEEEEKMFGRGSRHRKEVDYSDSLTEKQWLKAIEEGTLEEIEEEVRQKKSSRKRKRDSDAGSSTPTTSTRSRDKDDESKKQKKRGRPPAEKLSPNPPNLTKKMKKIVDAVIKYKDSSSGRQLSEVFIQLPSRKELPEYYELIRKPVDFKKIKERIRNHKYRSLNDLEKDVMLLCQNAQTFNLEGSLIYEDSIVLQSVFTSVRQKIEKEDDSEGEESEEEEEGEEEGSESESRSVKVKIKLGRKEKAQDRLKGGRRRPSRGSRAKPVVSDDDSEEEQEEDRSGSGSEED
Structure (SMILES),DC50 (HiBit-BRM fusion protein),BRM HiBit Degradation Maximum measured (HiBit-BRM fusion protein),DC50 [1],Dmax [1]
"Cc1ncsc1-c1ccc(CNC(=O)[C@@H]2C[C@@H](O)CN2C(=O)[C@@H](NC(=O)CCCCCC(=O)NCCOc2cc(-c3cccc(-c4csc(NC(=O)CNC(=O)c5ccn(S(C)(=O)=O)c5)n4)c3)ccn2)C(C)(C)C)cc1 [Compound 85, N1-((S)-1-((2S,4R)-4-hydroxy-2-((4-(4-methylthiazol-5-yl)benzyl)carbamoyl)pyrrolidin-1-yl)-3,3-dimethyl-1-oxobutan-2-yl)-N7-(2-((4-(3-(2-(2-(1-(methylsulfonyl)-1H-pyrrole-3-carboxamido)acetamido)thiazol-4-yl)phenyl)pyridin-2-yl)oxy)ethyl)heptanediamide]",0.1 to 1 µM,A (‘A’ = Maximum degradation >75%),0.1 to 1 µM,> 75%
"Cc1ncsc1-c1ccc(CNC(=O)[C@@H]2C[C@@H](O)CN2C(=O)[C@@H](NC(=O)CCCCCC(=O)N2CCN(c3cc(-c4cccc(-c5csc(NC(=O)CNC(=O)c6ccn(S(C)(=O)=O)c6)n5)c4)ccn3)CC2)C(C)(C)C)cc1 [Compound 86, N-(2-((4-(3-(2-(4-(7-(((S)-1-((2S,4R)-4-hydroxy-2-((4-(4-methylthiazol-5-yl)benzyl)carbamoyl)pyrrolidin-1-yl)-3,3-dimethyl-1-oxobutan-2-yl)amino)-7-oxoheptanoyl)piperazin-1-yl)pyridin-4-yl)phenyl)thiazol-2-yl)amino)-2-oxoethyl)-1-(methylsulfonyl)-1H-pyrrole-3-carboxamide]",0.1 to 1 µM,B (‘B’ = Maximum degradation ≥50% and ≤75%),0.1 to 1 µM,50 to 75%
Cc1ncsc1-c1ccc(CNC(=O)[C@@H]2C[C@@H](O)CN2C(=O)[C@@H](NC(=O)CCCCCNC(=O)CN(C)c2cc(-c3cccc(-c4csc(NC(=O)CNC(=O)c5ccn(S(C)(=O)=O)c5)n4)c3)ccn2)C(C)(C)C)cc1 [Compound 87],> 10 µM,C (‘C’ = Maximum degradation <50%),> 10 µM,< 50%
Cc1ncsc1-c1ccc(CNC(=O)[C@@H]2C[C@@H](O)CN2C(=O)[C@@H](NC(=O)CCCCCCCNC(=O)CN(C)c2cc(-c3cccc(-c4csc(NC(=O)CNC(=O)c5ccn(S(C)(=O)=O)c5)n4)c3)ccn2)C(C)(C)C)cc1 [Compound 88],< 0.1 µM,B (‘B’ = Maximum degradation ≥50% and ≤75%),< 0.1 µM,50 to 75%
Cc1ncsc1-c1ccc(CNC(=O)[C@@H]2CC(O)CN2C(=O)[C@@H](NC(=O)COCCOCCOCCNC(=O)CN(C)c2cc(-c3cccc(-c4csc(NC(=O)CNC(=O)c5ccn(S(C)(=O)=O)c5)n4)c3)ccn2)C(C)(C)C)cc1 (stereo partly drawn) [Compound 89],> 10 µM,C (‘C’ = Maximum degradation <50%),> 10 µM,< 50%
"Cc1ncsc1-c1ccc(CNC(=O)[C@@H]2C[C@@H](O)CN2C(=O)[C@@H](NC(=O)COCCOCCNC(=O)CN(C)c2cc(-c3cccc(-c4csc(NC(=O)CNC(=O)c5ccn(S(C)(=O)=O)c5)n4)c3)ccn2)C(C)(C)C)cc1 [Compound 94, N-(2-((4-(3-(2-(((S)-13-((2S,4R)-4-hydroxy-2-((4-(4-methylthiazol-5-yl)benzyl)carbamoyl)pyrrolidine-1-carbonyl)-14,14-dimethyl-2,11-dioxo-6,9-dioxa-3,12-diazapentadecyl)(methyl)amino)-pyridin-4-yl)phenyl)thiazol-2-yl)amino)-2-oxoethyl)-1-(methylsulfonyl)-1H-pyrrole-3-carboxamide]",> 10 µM,C (‘C’ = Maximum degradation <50%),> 10 µM,< 50%
"Cc1ncsc1-c1ccc(CNC(=O)[C@@H]2C[C@@H](O)CN2C(=O)[C@@H](NC(=O)CCCCCCCCCNC(=O)C2(c3cc(-c4cccc(-c5csc(NC(=O)CNC(=O)c6ccn(S(C)(=O)=O)c6)n5)c4)ccn3)CC2)C(C)(C)C)cc1 [Compound 98, N-(2-((4-(3-(2-(1-((10-(((S)-1-((2S,4R)-4-hydroxy-2-((4-(4-methylthiazol-5-yl)benzyl)carbamoyl)pyrrolidin-1-yl)-3,3-dimethyl-1-oxobutan-2-yl)amino)-10-oxodecyl)carbamoyl)cyclopropyl)-pyridin-4-yl)phenyl)thiazol-2-yl)amino)-2-oxoethyl)-1-(methylsulfonyl)-1H-pyrrole-3-carboxamide]",< 0.1 µM,A (‘A’ = Maximum degradation >75%),< 0.1 µM,> 75%

# Further lines, results first:
DC50 (HiBit-BRM fusion protein),BRM HiBit Degradation Maximum measured (HiBit-BRM fusion protein),DC50 [1],Dmax [1],Structure (SMILES)
> 10 µM,C (‘C’ = Maximum degradation <50%),> 10 µM,< 50%,"CS(=O)(=O)n1ccc(C(=O)NCC(=O)Nc2nc(-c3cccc(-c4ccnc(OCCNC(=O)CCCCCCCCCCNc5cccc6c5C(=O)N(C5CCC(=O)NC5=O)C6=O)c4)c3)cs2)c1 (stereo not drawn) [Compound 82, N-[2-[[4-[3-[2-[2-[11-[[2-(2,6-dioxo-3-piperidyl)-1,3-dioxo-isoindolin-4-yl]amino]undecanoylamino]ethoxy]-4-pyridyl]phenyl]thiazol-2-yl]amino]-2-oxo-ethyl]-1-methylsulfonylpyrrole-3-carboxamide]"
> 10 µM,C (‘C’ = Maximum degradation <50%),> 10 µM,< 50%,"CS(=O)(=O)n1ccc(C(=O)NCC(=O)Nc2nc(-c3cccc(-c4ccnc(OCCNC(=O)CCOCCOCCNc5ccc6c(c5)C(=O)N(C5CCC(=O)NC5=O)C6=O)c4)c3)cs2)c1 (stereo not drawn) [Compound 83, N-[2-[[4-[3-[2-[2-[3-[2-[2-[[2-(2,6-dioxo-3-piperidyl)-1,3-dioxoisoindolin-5-yl]amino]ethoxy]ethoxy]propanoylamino]ethoxy]-4-pyridyl]phenyl]thiazol-2-yl]amino]-2-oxo-ethyl]-1-methylsulfonyl-pyrrole-3-carboxamide]"
> 10 µM,C (‘C’ = Maximum degradation <50%),> 10 µM,< 50%,CN(CCOCCOCCNc1cccc2c1C(=O)N(C1CCC(=O)NC1=O)C2=O)C(=O)CN(C)c1cc(-c2cccc(-c3csc(NC(=O)CNC(=O)c4ccn(S(C)(=O)=O)c4)n3)c2)ccn1 (stereo not drawn) [Compound 84]
> 10 µM,C (‘C’ = Maximum degradation <50%),> 10 µM,< 50%,"Cc1c(C(=O)NCC(=O)Nc2nc(-c3cccc(-c4ccnc(N(C)CC(=O)NCCOCCOCCNc5cccc6c5C(=O)N(C5CCC(=O)NC5=O)C6=O)c4)c3)cs2)cn(S(=O)(=O)C(C)C)c1C (stereo not drawn) [Compound 90, N-[2-[[4-[3-[2-[[2-[2-[2-[2-[[2-(2,6-dioxo-3-piperidyl)-1,3-dioxo-isoindolin-4-yl]amino]ethoxy]ethoxy]ethylamino]-2-oxo-ethyl]-methyl-amino]-4-pyridyl]phenyl]thiazol-2-yl]amino]-2-oxo-ethyl]-1-isopropylsulfonyl-4,5-dimethyl-pyrrole-3-carboxamide]"
> 10 µM,C (‘C’ = Maximum degradation <50%),> 10 µM,< 50%,"Cc1c(C(=O)NCC(=O)Nc2nc(-c3cccc(-c4ccnc(N(C)CC(=O)NCCCCCNc5cccc6c5C(=O)N(C5CCC(=O)NC5=O)C6=O)c4)c3)cs2)cn(S(=O)(=O)C(C)C)c1C (stereo not drawn) [Compound 91, N-[2-[[4-[3-[2-[[2-[5-[[2-(2,6-dioxo-3-piperidyl)-1,3-dioxo-isoindolin-4-yl]amino]pentylamino]-2-oxo-ethyl]-methyl-amino]-4-pyridyl]phenyl]thiazol-2-yl]amino]-2-oxo-ethyl]-1-isopropylsulfonyl-4,5-dimethyl-pyrrole-3-carboxamide]"
> 10 µM,C (‘C’ = Maximum degradation <50%),> 10 µM,< 50%,CN(CC(=O)NCCCCCCCCNc1ccc2c(c1)C(=O)N(C1CCC(=O)NC1=O)C2=O)c1cc(-c2cccc(-c3csc(NC(=O)CNC(=O)c4ccn(S(C)(=O)=O)c4)n3)c2)ccn1 (stereo not drawn) [Compound 92]
> 10 µM,C (‘C’ = Maximum degradation <50%),> 10 µM,< 50%,CN(CC(=O)NCCOCCOCCNc1ccc2c(c1)C(=O)N(C1CCC(=O)NC1=O)C2=O)c1cc(-c2cccc(-c3csc(NC(=O)CNC(=O)c4ccn(S(C)(=O)=O)c4)n3)c2)ccn1 (stereo not drawn) [Compound 93]
> 10 µM,C (‘C’ = Maximum degradation <50%),> 10 µM,< 50%,"CN(CCNC(=O)C1(c2cc(-c3cccc(-c4csc(NC(=O)CNC(=O)c5ccn(S(C)(=O)=O)c5)n4)c3)ccn2)CC1)CCNc1cccc2c1C(=O)N(C1CCC(=O)NC1=O)C2=O (stereo not drawn) [Compound 97, N-[2-[[4-[3-[2-[1-[2-[2-[[2-(2,6-dioxo-3-piperidyl)-1,3-dioxoisoindolin-4-yl]amino]ethyl-methyl-amino]ethylcarbamoyl]cyclopropyl]-4-pyridyl]phenyl]thiazol-2-yl]amino]-2-oxo-ethyl]-1-methylsulfonyl-pyrrole-3-carboxamide]"
